In patent US20100173943A1, “INSECTICIDAL COMPOSITIONS WITH IMPROVED ACTION” (BAYER CROPSCIENCE AG, priority 2007, published 2010):

How the values were obtained:
[1] = tested on: cotton aphid (Aphis gossypii); assay: Aphis gossypii test (APHIGO spray treatment); format: in vivo; details: cotton leaves sprayed, 6 days; for pest or weed control at 0.8 ppm / pest or weed control at 4 ppm / pest or weed control at 20 ppm: Aphis gossypii, 144 h, read-out: Kill in % after 6 days a.i.; for pest or weed control at 0.8 ppm: 0.8 ppm a.i. alone; for pest or weed control at 4 ppm: 4 ppm a.i. alone; for pest or weed control at 20 ppm: 20 ppm a.i. alone
Method: Aphis gossypii Test (APHIGO Spray Treatment)
(§1) Solvent: 7 parts by weight of dimethylformamide
(§2) Emulsifier: 2 parts by weight of alkylaryl polyglycol ether
(§3) To prepare a ready-to-use active ingredient formulation, 1 part by weight of active ingredient is mixed with the specified amounts of solvent and emulsifier and the concentrate is diluted with emulsifier-containing water to the desired concentration. In the case that addition of ammonium salts, penetrants, or ammonium salts and penetrants is required, they are pipetted in each case into the finished preparation solution after dilution in a concentration of 1000 ppm each.
Cotton leaves (Gossypium hirsutum) highly infested by the cotton aphid (Aphis gossypii) are sprayed with an active ingredient formulation with the desired concentration.
After the desired period, the kill rate in % is determined. 100% means that all aphids have been killed; 0% means that no aphids have been killed.

[2] = tested on: green peach aphid (Myzus persicae); assay: Myzus persicae test (MYZUPE); format: in vivo; details: pepper plants sprayed, 6 days; for pest or weed control at 0.8 ppm: 0.8 ppm a.i. alone; for pest or weed control at 4 ppm: 4 ppm a.i. alone; for pest or weed control at 20 ppm: 20 ppm a.i. alone
Method: Myzus persicae Test (MYZUPE)
as §1, §2
as §3, with “prepare an appropriate” for “prepare a ready-to-use”, “the given” for “the specified”, “and emulsifier,” for “and emulsifier”, “are pippetted” for “are pipetted”
Pepper plants (Capsicum annuum) highly infested by the green peach aphid (Myzus persicaei) are treated by spraying with the active ingredient formulation in the desired concentration.
After the desired time, the kill rate in % is determined. 100% means that all animals have been killed; 0% means that no animals have been killed.

[3] = 0.8 ppm a.i. + AMS and RME 1000 ppm each
[4] = 0.8 ppm a.i. + ammonium sulphate 1000 ppm
[5] = 0.8 ppm a.i. + rapeseed oil methyl ester 1000 ppm
[6] = 4 ppm a.i. + AMS and RME 1000 ppm each
[7] = 4 ppm a.i. + ammonium sulphate 1000 ppm
[8] = 4 ppm a.i. + rapeseed oil methyl ester 1000 ppm
[9] = Myzus persicae, 144 h, read-out: Kill in % after 6 days a.i.
[10] = 20 ppm a.i. + AMS and RME 1000 ppm each
[11] = 20 ppm a.i. + ammonium sulphate 1000 ppm
[12] = 20 ppm a.i. + rapeseed oil methyl ester 1000 ppm

Row | SMILES | Kill in % after 6 days +AMS + RME [1, 3] [%] | Kill in % after 6 days +AMS [1, 4] [%] | Kill in % after 6 days +RME [1, 5] [%] | Kill in % after 6 days +AMS + RME [1, 6] [%] | Kill in % after 6 days +AMS [1, 7] [%] | Kill in % after 6 days +RME [1, 8] [%] | pest or weed control at 0.8 ppm [1] [%] | pest or weed control at 4 ppm [1] [%] | Kill in % after 6 days +AMS + RME [2, 3] [%] | Kill in % after 6 days +AMS [2, 4] [%] | Kill in % after 6 days +RME [2, 5] [%] | Kill in % after 6 days +AMS + RME [2, 6] [%] | Kill in % after 6 days +AMS [2, 7] [%] | Kill in % after 6 days +RME [2, 8] [%] | pest or weed control at 0.8 ppm [2, 9] [%] | pest or weed control at 4 ppm [2, 9] [%] | also measured
1 | O=C1C=C(N(Cc2cnc(Br)c(F)c2)CC(F)F)CO1 [Compound I-16, 4-{[(6-bromo-5-fluoropyrid-3-yl)methyl](2,2-difluoroethyl)amino}-furan-2(5H)-one] | 5 | 10 | 10 | 90 | 95 | 98 | 0 | 80 | 10 | 0 | 10 | 100 | 99 | 98 | 5 | 95 | 
2 | O=C1C=C(N(Cc2cnc(Cl)c(F)c2)CC(F)F)CO1 [Compound I-17, 4-{[(6-chloro-5-fluoropyrid-3-yl)methyl](2,2-difluoroethyl)amino}furan-2(5H)-one] | 40 | 20 | 40 |  |  |  | 0 |  | 25 | 5 | 35 | 100 | 99 | 100 | 0 | 95 | 
3 | CN(Cc1ccc(Cl)nc1)C1=CC(=O)CC1 [Compound I-18, 3-{[(6-chloropyrid-3-yl)methyl](methyl)amino}cyclopent-2-en-1-one] | 90 | 50 | 75 |  |  |  | 65 |  | 70 | 0 | 98 | 100 | 95 | 100 | 25 | 80 | 
4 | O=C1C=C(N(Cc2ccc(Cl)nc2)C2CC2)CC1 [Compound I-19, 3-{[(6-chloropyrid-3-yl)methyl](cyclopropyl)amino}cyclopent-2-en-1-one] | 50 | 0 | 40 | 80 | 40 | 85 | 0 | 15 |  |  |  |  |  |  |  |  | Kill in % after 6 days +AMS + RME [2, 10]: 100%; Kill in % after 6 days +AMS [2, 11]: 80%; Kill in % after 6 days +RME [2, 12]: 98%; pest or weed control at 20 ppm [2, 9]: 80%
5 | CN(Cc1cccnc1)C1=CC(=O)OC1 [Compound I-21, 4-[methyl(pyrid-3-ylmethyl)amino]furan-2(5H)-one] |  |  |  | 45 | 5 | 50 |  | 10 |  |  |  |  |  |  |  |  | Kill in % after 6 days +AMS + RME ([2]; 100 ppm a.i. + AMS and RME 1000 ppm each): 65%; Kill in % after 6 days +AMS ([2]; 100 ppm a.i. + ammonium sulphate 1000 ppm): 70%; Kill in % after 6 days +RME ([2]; 100 ppm a.i. + rapeseed oil methyl ester 1000 ppm): 90%; pest or weed control at 100 ppm ([2]; Myzus persicae, 144 h, 100 ppm a.i. alone, read-out: Kill in % after 6 days a.i.): 50%
6 | O=C1C=C(N(Cc2ccc(F)nc2)C2CC2)CO1 [Compound I-22, 4-{cyclopropyl[(6-fluoropyrid-3-yl)methyl]amino}furan-2(5H)-one] | 45 | 20 | 30 | 65 | 70 | 55 | 25 | 60 |  |  |  | 80 | 0 | 70 |  | 5 | Kill in % after 6 days +AMS + RME [2, 10]: 90%; Kill in % after 6 days +AMS [2, 11]: 80%; Kill in % after 6 days +RME [2, 12]: 85%; pest or weed control at 20 ppm [2, 9]: 65%
7 | CN(Cc1ccc(C(F)(F)F)nc1)C1=CC(=O)OC1 [Compound I-23, 4-(methyl {[6-(trifluoromethyl)pyrid-3-yl]methyl}amino)furan-2(5H)-one] | 25 | 15 | 50 |  |  |  | 10 |  | 80 | 10 | 75 |  |  |  | 35 |  | 
8 | O=C1C=C(N(Cc2ccc(C(F)(F)F)nc2)C2CC2)CO1 [Compound I-24, 4-(cyclopropyl {[6-(trifluoromethyl)pyrid-3-yl]methyl}amino)furan-2(5H)-one] |  |  |  |  |  |  |  |  |  |  |  | 75 | 20 | 85 |  | 15 | Kill in % after 6 days +AMS + RME [1, 10]: 90%; Kill in % after 6 days +AMS [1, 11]: 85%; Kill in % after 6 days +RME [1, 12]: 85%; pest or weed control at 20 ppm [1]: 50%; Kill in % after 6 days +AMS + RME [2, 10]: 98%; Kill in % after 6 days +AMS [2, 11]: 90%; Kill in % after 6 days +RME [2, 12]: 95%; pest or weed control at 20 ppm [2, 9]: 75%
9 | CC1OC(=O)C=C1N(C)Cc1ccc(Cl)nc1 (centres unmarked) [Compound I-25, 4-{[(6-chloropyrid-3-yl)methyl](methyl)amino}-5-methylfuran-2(5H)-one] |  |  |  | 100 | 60 | 75 |  | 65 |  |  |  | 55 | 50 | 80 |  | 0 | 
10 | CN(Cc1ccc(Br)nc1)C1=CC(=O)OC1 [Compound I-26, 4-{[(6-bromopyrid-3-yl)methyl](methyl)amino}furan-2(5H)-one] | 98 | 70 | 98 |  |  |  | 90 |  | 95 | 55 | 100 |  |  |  | 65 |  | 
11 | CN(Cc1ccc(Cl)nc1)C1=C(F)C(=O)OC1 [Compound I-28, 4-{[(6-chloropyrid-3-yl)methyl](methyl)amino}-3-fluorofuran-2(5H)-one] |  |  |  | 80 | 60 | 75 |  | 50 |  |  |  | 95 | 15 | 90 |  | 50 | Kill in % after 6 days +AMS + RME [1, 10]: 95%; Kill in % after 6 days +AMS [1, 11]: 90%; Kill in % after 6 days +RME [1, 12]: 95%; pest or weed control at 20 ppm [1]: 55%
12 | CON(Cc1ccc(Cl)nc1)C1=CC(=O)OC1 [Compound I-29, 4-{[(6-chloropyrid-3-yl)methyl](methoxy)amino}furan-2(5H)-one] |  |  |  | 75 | 65 | 50 |  | 50 | 50 | 0 | 30 |  |  |  | 0 |  | 
13 | CCN(Cc1ccc(Cl)nc1)C1=CC(=O)OC1 [Compound I-30, 4-{[(6-chloropyrid-3-yl)methyl](ethyl)amino}furan-2(5H)-one] |  |  |  |  |  |  |  |  | 45 | 25 | 95 |  |  |  | 5 |  | Kill in % after 6 days +AMS + RME [1, 10]: 95%; Kill in % after 6 days +AMS [1, 11]: 100%; Kill in % after 6 days +RME [1, 12]: 100%; pest or weed control at 20 ppm [1]: 80%
